Experimental data reported in US20260053931A1, “MDM2 TARGETING PROTACS” (THE WISTAR INSTITUTE OF ANATOMY AND BIOLOGY, priority 2023, published 2026).

Legend:
[1] = tested on: p53-null mouse sarcoma cells; assay: Murine Mdm2+/+ p53-null sarcoma cells, Western blot and MTT; format: cell-based
[2] = Mouse liver microsomal stability; format: in vitro ADME; details: mouse liver microsomes, 0.5 μM compound
Experimental: To translate cell-based activity to in vivo efficacy, the Mdm2 PROTACs were evaluated for metabolic stability and plasma compound levels after IP injection in the mouse. Mouse liver microsome stability was obtained for lead compounds (Alliance Pharma, Inc; Malvern PA) as a predictive measure for suitable exposure in a mouse pharmacokinetic study. In brief, test compounds (0.5 μM) are incubated with liver microsomes ([…]) and an NADPH-regenerating system (cofactor solution) and samples are taken at various timepoints, quenched with an acetonitrile solution containing an internal standard, then analyzed by LC-MS/MS. […] Mouse pharmacokinetic studies for YX-02-030 and YX-02-288 were completed. Mouse plasma levels were evaluated following intraperitoneal (10 mg/kg) administration. Plasma was collected at timepoints 0.25 h, 0.5 h, 1 h, 2 h, 4 h and 6 h after Mdm2 PROTAC injection. Plasma was deproteinized and analyzed for compound using LC-MS/MS methods. Three mice were used for each time point and one control animal (Alliance Pharma Inc, Malvern PA).

[3] = tested on: MDA-MB-231 and MDA-MB-436 TNBC xenografts; assay: TNBC xenografts in nude mice; format: in vivo, mouse
Experimental: A-G. MDA-MB-231 and MDA-MB-436 cells were injected (subcutaneous) into one flank of nude mice and allowed to form palpable tumors (approximately 80 mm^3). Mice (randomized into tumor-size matched groups) were treated (intraperitoneal injection) with MDM2-PROTAC YX-02-030, RG7112D, or vehicle control at 50 mg/kg once daily for 14 days (treatment start, green arrow and stop, red arrow). Kaplan-Meier survival analysis (A) and tumor volume (B; individual, left and averaged, right) were evaluated overtime. C-G, After 72 hr of treatment, tumors (n=3/group; −, vehicle control) were harvested and protein expression evaluated by Western blotting (C), Annexin-V positivity (D), Caspase-3 activity (E), apoptotic subG1 DNA content (F), and viability by Trypan Blue dye exclusion (G). Mean±SD (B (right), D-G). Log-rank tests for A, and longitudinal tumor growth analysis using 2-way ANOVA with Bonferroni correction for B; P-values indicated. *P<0.0021 for D, *P<0.0001 for E, *P<0.0147 for F, and *P<0.0014 for G were determined using unpaired two-tailed t-tests, comparing PROTAC to vehicle control.
Prior to testing YX-02-030 tumors in vivo, mouse liver microsome and pharmacokinetic (PK) studies were performed to determine its stability in vivo. […] Due to its stability in vivo, the effectiveness of YX-02-030 was then evaluated at killing TNBC tumors in mice. Xenografts of MDA-MB-231 and MDA-MB-436 TNBC cells grew to ˜80 mm^3, and then tumor size-matched mice were treated with YX-02-030, RG7112D control compound, or vehicle control. […] To confirm YX-02-030 was hitting its target (MDM2) in the TNBC tumors, tumors were harvested from a cohort of mice after 72 hours of YX-02-030 treatment. […] The toxicity of YX-2-228 was analyzed as compared to both the vehicle and YX-2-30. (FIGS. 25A & 25B).

[4] = tested on: TNBC patient-derived explants; assay: Patient-derived TNBC explants; format: cell-based, human
Experimental: FIGS. 27A-27E show TP53 mutant TNBC patient-derived explants undergo apoptosis following treatment with the MDM2-PROTAC YX-02-030. A. TP53 sequenced in five fresh TNBC patient samples and used in explant and 3D mammosphere cultures. B-C. TNBC patient-derived explants were treated with the compounds indicated and Western blotting (B) and immunohistochemistry (IHC) of FFPE sections for cleaved Caspase-3 (C, n=3 paired patient samples) were performed. Representative images of H&E and cleaved Caspase-3 (CC3) IHC shown, including normal breast epithelium treated with MDM2-PROTAC YX-02-030; scale bar 300 m. D-E. Mammosphere cultures were established from TNBC patient samples, treated with the indicated compounds, and live-cell detection of Caspase-3/7 activity (D, quadruplicate) and mammosphere survival/ATP production (E, quadruplicate) were measured.
To assess the effects of YX-02-030 on TNBC patient samples, fresh, surgically-resected tumor from five TNBC patients was obtained, and 80% were from Black/African American patients (FIG. 26). Each tumor had TP53 missense mutations with two having the same hot-spot (R248Q) p53 mutation and one that had 3 TP53 mutations (FIG. 27A). […]

Mdm2 = Mdm2 (Homo sapiens, UniProt Q00987); assay: Western blot of TNBC cells treated with PROTAC; format: cell-based; parameters: endogenous in cells; MDA-MB-231 (A9)
Description: A. Chemical structure of MDM2-PROTAC. B-C. MDM2:p53 and MDM2:VHL-HIF1α peptide binding inhibition determined by homogeneous time-resolved fluorescence (HTRF, triplicate, mean±SEM, B) and surface plasmon resonance (SPR, triplicate, mean±SD, C. Binding assays by the indicated compounds. Graphical data is representative of 3 separate experiments. D. AlphaScreen of ternary complex using GST-MDM2 and HIS-VHL; mean±SD. E-F. Western blot analysis for the proteins indicated following a dose-titration (E, 16 hr) and time course (F, 6 μM) with the PROTAC or vehicle control (DMSO, −) in MDA-MB-231 (p53-mutant) and MDA-MB-436 (p53-delete) cells. G-K. Western blot analysis for the proteins indicated following treatment with the MDM2-PROTAC and/or the neddylation activating enzyme inhibitor MLN4924 G.
PROTACs work by forming a ternary complex consisting of the target protein, the PROTAC, and the recruited E3 ubiquitin ligase-E2 complex, causing ubiquitination of the target protein, marking it for 26S proteasome-mediated degradation (Nalawansha & Crews, 2020). FIG. 19D confirms that the PROTAC forms a […] complex. […] Similarly, when the proteasome was inhibited with MG132, MDM2 protein levels were maintained despite YX-02-030 exposure (FIG. 19H). Therefore, YX-02-030 targets MDM2 protein for 26S proteasome-mediated degradation in TNBC cells and this requires the ubiquitin cascade.

non-cancerous cells = assay: Western blot and MTT assay, non-cancerous cells
[5] = 50 mg/kg IP once daily for 14 days, compared to control mice

Sequence of Mdm2 (Q00987 whole entry): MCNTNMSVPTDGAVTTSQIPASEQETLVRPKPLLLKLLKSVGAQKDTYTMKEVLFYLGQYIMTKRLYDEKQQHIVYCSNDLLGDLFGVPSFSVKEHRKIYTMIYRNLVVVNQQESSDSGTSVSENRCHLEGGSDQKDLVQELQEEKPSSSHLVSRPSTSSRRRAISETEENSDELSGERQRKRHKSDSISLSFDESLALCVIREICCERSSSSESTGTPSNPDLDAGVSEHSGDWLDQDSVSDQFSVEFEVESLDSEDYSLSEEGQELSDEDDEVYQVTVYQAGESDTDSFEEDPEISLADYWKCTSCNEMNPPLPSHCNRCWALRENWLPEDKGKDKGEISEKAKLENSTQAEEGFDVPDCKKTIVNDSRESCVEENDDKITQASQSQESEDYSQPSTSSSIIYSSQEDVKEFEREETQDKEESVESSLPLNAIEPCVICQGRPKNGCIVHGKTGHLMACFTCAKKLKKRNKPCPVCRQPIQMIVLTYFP

## CCOc1cc(C(C)(C)C)ccc1C1=N[C@](C)(c2ccc(Cl)cc2)[C@](C)(c2ccc(Cl)cc2)N1C(=O)N1CCN(CC(=O)NCCOCCOCCOCC(=O)N[C@H](C(=O)N2C[C@H](O)C[C@H]2C(=O)NCc2ccc(-c3scnc3C)cc2)C(C)(C)C)CC1 (racemic) [YX-02-030]
[1]; Western blots after 24 hrs
  p73 and apoptosis (cleaved caspase 3): stabilized p73 and induced apoptosis
[1]; increasing concentrations, MTT assay, 48 hrs
  killing of p53-null sarcoma cells: killed p53-null sarcoma cells
[2]
  half-life at 0.5 μM: 25.9 min
[3]; [5]
  mouse survival: significantly extended mouse survival
  tumor volume: decreased tumor volume
[3]; nude mice, 50 mg/kg IP, 14 consecutive days
  mouse weight: mouse weight was maintained
[3]; tumors harvested after 72 hours of treatment
  MDM2 protein in tumors: loss of MDM2 protein
[4]; explants
  apoptosis markers by Western blot: increased levels of cleaved Caspase-3 and cleaved PARP
[4]; within 4 days of treatment
  MDM2 protein in patient tumors: MDM2 protein was lost
Mdm2; MDA-MB-231 (mutated p53) and MDA-MB-436 (deleted p53), dose titration 16 hr, time course 6 μM
  MDM2 protein level: loss of MDM2 protein
Mdm2; Western blot
  VHL protein level: not degraded
non-cancerous cells
  sensitivity of non-cancerous cells: resistant
